{"source": "patent US20110306671A1", "about": "“AMIDE DERIVATIVES OF ETHACRYNIC ACID” (The Regents of the The University of California, priority 2008, published 2011)", "key": {"Wnt signaling": {"system": "Wnt signaling", "experiment": "CellSensor LEF/TCF-bla SW480 cell-based assay (Wnt signaling inhibition)", "parameters": "species or system human", "conditions": "Homo sapiens; LEF/TCF-bla SW480 cells, 20 hours", "experimental": "To determine the specificity of compounds on Wnt/[…]-catenin pathway inhibition, CellSensor LEF/TCF-bla SW480 cell-based assay (Invitrogen, Carlsbad, Calif.) was used according to the supplier's instructions, but modified for a 96 well format. Cells were plated at 25,000 cells/well in assay medium in 96-well black plates with clear bottom (Corning) the day prior to compound treatment."}, "SW480": {"system": "SW480", "experiment": "Cytotoxicity of EA in tumor cell line SW480", "format": "cell-based", "conditions": "Homo sapiens, mean of at least two experiments"}, "HT29": {"system": "HT29", "experiment": "Cytotoxicity of EA in tumor cell line HT29", "format": "cell-based", "conditions": "Homo sapiens, HT-29, mean of at least two experiments"}, "MCF-7": {"system": "MCF-7", "experiment": "Cytotoxicity of EA in tumor cell line MCF-7", "format": "cell-based", "conditions": "Homo sapiens, MCF7, mean of at least two experiments"}, "[1]": {"system": "different tumor cell lines", "experiment": "Cytotoxicity of EA in different tumor cell lines (summary)", "format": "cell-based", "conditions": "read-out: mean 50% inhibitory concentration (IC50) of EA in these cell lines; range over the tumor cell lines of Table 3"}, "[2]": {"system": "Wnt3a-induced transcription", "experiment": "Stable Super8XTOPflash reporter HEK293 cells stimulated with Wnt3a", "format": "cell-based, human", "experimental": "(§1) FIG. 1. Inhibition of Wnt/β-catenin signaling by EA. […] Cells were lysed and luciferase activity was quantified. Total protein levels were determined by Bradford Assay and serve as a control for total cell number. (B) HEK293 cells were co-transfected with TOPflash reporter construct, along with expression plasmids for Wnt1, Wnt3, LRP6, Dvl and β-catenin as indicated. […] (C) HEK293 cells were transfected with FOPflash reporter with or without an expression plasmid for β-catenin. […] (D) HEK293 cells were transfected with NFAT reporter and expression plasmid for NFATc. […] The results are expressed as fold induction of luciferase activity compared to the basal level, and are the means of three experiments±SEM. The Super8XTOPflash construct (kindly provided by Dr. R. Moon) was stably transfected into HEK293 cells, and single cell clones were isolated. […] (2003) and Willert et al. (2008)."}, "Wnt/β-catenin signaling": {"system": "Wnt/β-catenin signaling", "experiment": "TOPflash reporter assay in transfected HEK293 cells", "format": "cell-based, human"}, "FOPflash reporter": {"system": "FOPflash reporter", "experiment": "FOPflash reporter assay in HEK293 cells", "format": "cell-based, human", "conditions": "50 μM EA, 24 hours", "experimental": "as §1, with “For screening of the drug library, HEK293 cells were grown for at least 24 hours in 10 cm plates prior to transfection. At 50% confluence, cells were” for “The Super8XTOPflash construct (kindly provided by Dr. R. Moon) was stably”, “with 5 μg of TOPflash reporter, 1 μg expression vector for Dvl, 1 μg of control plasmid pCMXβgal” for “into HEK293 cells,”, “carrier DNA pcDNA3 plasmid for a total of 10 μg/plate. After transfection for 24 hours, cells” for “single cell clones”, “harvested and dispersed in 96-well microtiter plates.” for “isolated.”, “Then luciferase values were determined. In the Results section, data are expressed as fold stimulation of luciferase activity compared to the basal level. […]” for “(2003) and Willert et al. (2008).”"}, "Fzd5 mRNA": {"system": "Fzd5 mRNA", "experiment": "Real-time PCR of Fzd5 in CLL cells", "format": "cell-based, human", "conditions": "CLL cells from three patients, 16 hours"}, "Primary CLL cells [3]": {"system": "Primary CLL cells", "experiment": "Cell apoptosis assay (DiOC6/PI flow cytometry) in primary CLL cells", "format": "cell-based, human", "conditions": "3 μM EA; preliminary, data not shown"}, "[4]": {"conditions": "continuous i.v. infusion, cited from earlier work"}, "Primary CLL cells [5]": {"system": "Primary CLL cells", "experiment": "Cell viability assay (MTT) with primary CLL cells", "conditions": "48 hours"}}, "note": "“And” between values parts separate entries of the source, which are not always exact repeats. Equal entries are not always repeated.", "data": [{"smiles": "C=C(CC)C(=O)c1ccc(OCC(=O)O)c(Cl)c1Cl", "note": "[Compound 1, Ethacrynic acid]", "values": [{"measurement": "IC50", "setting": "Wnt signaling", "value": 32.7, "unit": "µM"}, {"measurement": "IC50", "setting": "SW480", "value": 68, "unit": "µM"}, {"measurement": "IC50", "setting": "HT29", "value": 56, "unit": "µM"}, {"measurement": "IC50", "setting": "MCF-7", "value": 63, "unit": "µM"}, {"measurement": "IC50", "setting": "[1]", "value": "40 to 200", "unit": "µM"}, {"measurement": "IC50", "setting": "[2]; Homo sapiens, HEK293, read-out: IC50 for inhibition of Wnt3A-induced transcription", "value": "~25", "unit": "µM"}, {"measurement": "effect on Wnt3a-induced transcription of the SuperTOPflash reporter", "setting": "[2]; Wnt3a 10 nM, EA 20-35 μM, 18 hours", "value": "blocked Wnt3a-induced transcription in a dose-dependent manner"}, {"measurement": "effect on Wnt1/LRP6 or Wnt3/LRP6, Dvl, and β-catenin-induced transcription", "setting": "Wnt/β-catenin signaling; 50 μM EA, 24 hours", "value": "reduced"}, {"measurement": "inhibition of TOPflash activity (drug library screen)", "setting": "Wnt/β-catenin signaling; Dvl-activated, generally at 10 μM and 50 μM, overnight", "value": "≥ 30", "unit": "%"}, {"measurement": "effect on the FOPflash reporter", "setting": "FOPflash reporter", "value": "no effect"}, {"measurement": "Fzd5 expression", "setting": "Fzd5 mRNA", "value": "dose-dependent enhancement"}, {"measurement": "effect on fludarabine-mediated apoptosis of CLL cells", "setting": "Primary CLL cells [3]", "value": "enhanced"}, {"measurement": "time for which plasma concentrations are sustained", "setting": "[4]; above 1 μg/ml", "value": "up to 3 hours"}, {"measurement": "sustained plasma concentrations", "setting": "[4]; listed as EA", "value": "greater than 1 μg/ml and > 3.3 μM"}, {"measurement": "EC50", "setting": "Primary CLL cells [5]; read-out: CLL Inhibition EC50, CLL survival, MTT", "value": 9.9, "unit": "µM"}, {"measurement": "IC50", "setting": "Primary CLL cells [5]; read-out: IC50-EA, Primary CLL cells from nine patients, mean", "value": 8.56, "unit": "µM"}]}]}
